According to patent US10702489B2, “Treatment of nervous system disorders using combinations of RXR agonists and thyroid hormones” (IO Therapeutics, Inc., priority 2015, dated 2020):

Test system: mouse oligodendrocyte progenitor cells (OPCs)
Test: mouse OPC differentiation with IRX4204 and T3
Assay type: cell-based
Settings: 5-day treatment; IRX4204 10, 1, 0.1 nM
Method: OPCs were derived from plp-EGFP expressing mice.
Therapeutic agents were tested in 96-well plates (6 wells per concentration). […] All media contained 0.1% DMSO. At the end of the 5-day treatment, cells were imaged on Cellomics in two channels and algorithms were used to count nuclei and EGFP+oligodendrocytes.

N[C@@H](Cc1cc(I)c(Oc2ccc(O)c(I)c2)c(I)c1)C(=O)O [T3, triiodothyronine, reference compound]
oligodendrocyte production (EGFP+ oligodendrocytes): clear dose-responses
